From patent publication US12582652B2, “3-(ethoxydifluoromethyl)-6-(5-fluoro-6-(2,2,2-trifluoroethoxy)pyridin-3-yl)-[1,2,4]triazolo[4,3-a]pyrazine as an ion channel modulator” (Praxis Precision Medicines, Inc., priority 2022, dated 2026)

How the values were obtained:
[1] = test system: Hcn1 DEE mouse model; test: Pentylenetetrazole (PTZ) induced seizure, Hcn1 model; assay type: in vivo
Protocol: (§1) Pentylenetetrazole (PTZ), a GABA receptor antagonist, can be used to create a common, chemically-induced seizure model, a model of generalized seizure.
(§2) Mice were acclimated to experimental area for minimum 30 minutes before experimentation. All experiments were performed between 10:00 am and 12:30 pm. The treatment compounds and PTZ were always prepared fresh.
(§3) Mice were randomly assigned either to different doses of Compound 1 (10 mg/kg, 1 mg/kg, or 0.1 mg/kg) or a vehicle control containing 0.5% methylcellulose and 0.2% tween 80, and dosed via oral gavage (p.o). Compound 1 and the vehicle control were administered 60 minutes before the injection of PTZ.
(§4) PTZ (100 mg/kg) was dissolved in saline and administered subcutaneously (s.c) to the experimental mice. The latency to full tonic-clonic seizure with hind limb extension was measured. The animals were sacrificed either at the time of hind limb extension or 40 minutes after PTZ administration if no hind limb extension was recorded.
(§5) Data were analyzed using a Mantel-Cox log-rank test. Brain tissue and plasma were collected from some mice for each dose of Compound 1 at the PTZ endpoint for PK analysis.

[2] = test system: heterozygous Kcnq2 K556E mice; test: Pentylenetetrazole (PTZ) induced seizure, Kcnq2 model; assay type: in vivo, mouse
Protocol: as §1, §2, §3, §4, §5

[3] = target: T1, hNaV1.6 (Homo sapiens, UniProt Q9UQD0); test: Steady-state inactivation and activation curves (V1/2 shift); assay type: cell-based; settings: for shift in V1/2 of activation curve: DMSO control −1.3 mV
T1 construct: stably expressing either human NaV1.6 (NP_055006); expressed in transfected cells
T1 sequence (Q9UQD0 whole entry): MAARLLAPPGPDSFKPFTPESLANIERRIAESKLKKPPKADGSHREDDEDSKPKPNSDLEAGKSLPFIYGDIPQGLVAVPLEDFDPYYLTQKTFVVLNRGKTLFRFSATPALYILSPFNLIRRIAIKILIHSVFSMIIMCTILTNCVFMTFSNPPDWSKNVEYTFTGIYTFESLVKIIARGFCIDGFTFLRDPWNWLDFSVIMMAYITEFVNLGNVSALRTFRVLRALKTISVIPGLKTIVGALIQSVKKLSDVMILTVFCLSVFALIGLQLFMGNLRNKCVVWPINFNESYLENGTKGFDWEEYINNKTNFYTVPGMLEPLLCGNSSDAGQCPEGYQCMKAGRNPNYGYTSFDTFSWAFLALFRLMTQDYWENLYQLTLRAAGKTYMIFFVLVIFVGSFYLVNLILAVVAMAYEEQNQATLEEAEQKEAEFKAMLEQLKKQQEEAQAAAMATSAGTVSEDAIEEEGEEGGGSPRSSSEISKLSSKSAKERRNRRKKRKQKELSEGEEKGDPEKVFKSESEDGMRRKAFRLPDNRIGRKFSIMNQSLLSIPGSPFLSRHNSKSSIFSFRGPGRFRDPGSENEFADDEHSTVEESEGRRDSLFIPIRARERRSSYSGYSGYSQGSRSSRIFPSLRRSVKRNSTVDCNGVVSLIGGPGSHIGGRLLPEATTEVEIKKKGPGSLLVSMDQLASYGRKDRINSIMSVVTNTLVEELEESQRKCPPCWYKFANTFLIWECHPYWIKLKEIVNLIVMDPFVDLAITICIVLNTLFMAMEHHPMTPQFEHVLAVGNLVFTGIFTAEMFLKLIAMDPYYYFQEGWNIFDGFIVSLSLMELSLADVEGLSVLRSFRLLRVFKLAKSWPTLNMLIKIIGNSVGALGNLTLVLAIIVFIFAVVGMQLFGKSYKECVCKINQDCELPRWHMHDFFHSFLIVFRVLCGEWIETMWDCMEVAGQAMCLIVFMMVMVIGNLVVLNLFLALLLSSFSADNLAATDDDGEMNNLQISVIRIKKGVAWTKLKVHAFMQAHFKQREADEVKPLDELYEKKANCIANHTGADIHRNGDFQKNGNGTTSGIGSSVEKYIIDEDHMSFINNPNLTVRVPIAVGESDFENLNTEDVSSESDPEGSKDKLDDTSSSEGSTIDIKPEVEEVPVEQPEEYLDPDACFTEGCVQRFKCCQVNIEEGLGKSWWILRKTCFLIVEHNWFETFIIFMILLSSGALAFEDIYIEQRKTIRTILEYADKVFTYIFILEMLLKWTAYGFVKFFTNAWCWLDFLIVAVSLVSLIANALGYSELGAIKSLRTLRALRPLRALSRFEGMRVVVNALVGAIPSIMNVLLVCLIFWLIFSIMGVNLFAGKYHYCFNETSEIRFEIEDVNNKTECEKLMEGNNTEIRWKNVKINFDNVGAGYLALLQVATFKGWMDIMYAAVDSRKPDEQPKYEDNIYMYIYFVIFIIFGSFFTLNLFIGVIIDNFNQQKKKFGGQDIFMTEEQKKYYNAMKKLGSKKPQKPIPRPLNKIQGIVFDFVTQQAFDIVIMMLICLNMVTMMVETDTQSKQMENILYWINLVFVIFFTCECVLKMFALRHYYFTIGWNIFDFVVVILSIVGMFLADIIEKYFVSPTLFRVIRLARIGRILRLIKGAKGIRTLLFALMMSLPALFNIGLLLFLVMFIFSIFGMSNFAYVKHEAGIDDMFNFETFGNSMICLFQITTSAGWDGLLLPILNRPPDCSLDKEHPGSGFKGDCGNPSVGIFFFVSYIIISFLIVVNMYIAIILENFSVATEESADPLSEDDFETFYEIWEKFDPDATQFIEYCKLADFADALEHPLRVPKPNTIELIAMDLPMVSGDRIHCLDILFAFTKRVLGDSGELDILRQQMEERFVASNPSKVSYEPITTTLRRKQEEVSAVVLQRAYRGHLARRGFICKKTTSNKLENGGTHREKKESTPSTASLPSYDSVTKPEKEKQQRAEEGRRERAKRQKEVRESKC

[4] = test system: hNaV1.1, hNaV1.2, hNaV1.5, rNaV1.2, dNaV1.2, mNaV1.6, rNaV1.6; test: Persistent INa of other NaV isoforms and orthologs, patch clamp; settings: read-out: persistent INa IC50 values across isoforms and orthologs
Excerpt: Persistent INa was activated from resting/closed channel conformations by maintaining a hyperpolarized holding potential (−120 mV).

[5] = target: hNaV1.2 (Homo sapiens, UniProt Q99250); test: Persistent INa, patch clamp; assay type: cell-based
Protocol: (§6) Late (persistent) current Block: The inhibition of ATX-II activated late current was measured using a 200 ms voltage step to 0 mV. Protocols used low stimulation rates (about 0.1 Hz) and negative potentials (−120 mV) to keep channels in closed (resting) states. Pharmacology was measured as the mean INa during the final 20 ms of the step to 0 mV and leak subtraction was not used.

[6] = target: hNaV1.1 (Homo sapiens, UniProt P35498); test: Persistent INa, patch clamp; assay type: cell-based
Protocol: as §6

[7] = target: hNaV1.5 (Homo sapiens, UniProt Q14524); test: Persistent INa, patch clamp; assay type: cell-based
hNaV1.5, sequence (Q14524 1-2015 isoform Q14524-2): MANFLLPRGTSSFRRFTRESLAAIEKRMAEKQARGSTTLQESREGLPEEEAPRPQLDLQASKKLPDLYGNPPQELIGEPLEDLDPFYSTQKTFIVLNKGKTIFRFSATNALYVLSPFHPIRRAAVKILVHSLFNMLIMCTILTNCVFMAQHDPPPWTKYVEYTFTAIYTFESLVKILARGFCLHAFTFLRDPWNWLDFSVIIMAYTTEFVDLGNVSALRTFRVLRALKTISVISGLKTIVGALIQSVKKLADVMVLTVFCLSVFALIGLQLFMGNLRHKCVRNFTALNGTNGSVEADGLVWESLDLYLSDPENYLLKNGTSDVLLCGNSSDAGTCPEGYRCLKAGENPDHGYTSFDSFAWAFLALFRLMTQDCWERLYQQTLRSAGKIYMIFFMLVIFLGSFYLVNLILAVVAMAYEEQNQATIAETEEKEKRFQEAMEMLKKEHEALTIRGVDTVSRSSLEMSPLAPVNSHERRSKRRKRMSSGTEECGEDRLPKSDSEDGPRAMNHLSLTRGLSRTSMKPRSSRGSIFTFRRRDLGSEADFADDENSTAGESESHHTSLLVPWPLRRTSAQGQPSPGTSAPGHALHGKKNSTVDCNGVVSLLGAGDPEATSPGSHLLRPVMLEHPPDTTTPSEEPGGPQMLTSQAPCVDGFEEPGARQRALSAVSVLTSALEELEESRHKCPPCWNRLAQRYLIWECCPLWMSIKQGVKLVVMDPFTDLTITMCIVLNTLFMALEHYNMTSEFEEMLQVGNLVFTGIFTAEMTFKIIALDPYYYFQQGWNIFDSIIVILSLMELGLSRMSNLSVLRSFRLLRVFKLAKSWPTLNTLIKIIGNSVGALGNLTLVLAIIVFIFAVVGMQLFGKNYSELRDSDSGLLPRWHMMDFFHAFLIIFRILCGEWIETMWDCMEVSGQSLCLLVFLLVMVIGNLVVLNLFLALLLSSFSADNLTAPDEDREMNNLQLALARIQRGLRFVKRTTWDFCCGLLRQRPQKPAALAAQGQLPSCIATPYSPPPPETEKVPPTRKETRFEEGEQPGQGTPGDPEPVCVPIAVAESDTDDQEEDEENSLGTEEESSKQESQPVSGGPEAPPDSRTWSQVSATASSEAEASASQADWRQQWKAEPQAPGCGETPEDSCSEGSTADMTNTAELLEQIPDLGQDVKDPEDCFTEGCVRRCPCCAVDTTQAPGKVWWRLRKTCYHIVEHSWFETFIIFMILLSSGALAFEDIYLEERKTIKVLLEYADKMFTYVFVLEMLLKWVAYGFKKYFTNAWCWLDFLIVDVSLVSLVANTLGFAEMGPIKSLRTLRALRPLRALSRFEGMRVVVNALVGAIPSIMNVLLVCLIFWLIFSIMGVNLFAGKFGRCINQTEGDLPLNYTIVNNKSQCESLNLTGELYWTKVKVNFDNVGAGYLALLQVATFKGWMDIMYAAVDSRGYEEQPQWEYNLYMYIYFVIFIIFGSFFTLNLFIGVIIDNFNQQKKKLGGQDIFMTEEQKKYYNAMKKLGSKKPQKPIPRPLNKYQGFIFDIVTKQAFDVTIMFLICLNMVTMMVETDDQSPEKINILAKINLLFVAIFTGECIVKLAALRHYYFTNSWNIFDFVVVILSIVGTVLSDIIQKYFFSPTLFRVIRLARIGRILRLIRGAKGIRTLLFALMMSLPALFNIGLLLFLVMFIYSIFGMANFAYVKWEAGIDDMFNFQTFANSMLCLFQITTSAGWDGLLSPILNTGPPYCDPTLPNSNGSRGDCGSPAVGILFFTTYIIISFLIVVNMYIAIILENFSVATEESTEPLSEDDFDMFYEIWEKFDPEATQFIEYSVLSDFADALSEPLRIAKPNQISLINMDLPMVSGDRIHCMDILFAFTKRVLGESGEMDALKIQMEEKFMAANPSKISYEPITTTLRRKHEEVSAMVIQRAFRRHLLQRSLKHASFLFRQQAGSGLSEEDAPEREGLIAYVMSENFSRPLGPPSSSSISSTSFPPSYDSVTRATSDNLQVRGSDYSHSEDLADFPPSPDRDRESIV
Protocol: as §6

[8] = target: T2, human NaV1.6 (Homo sapiens, UniProt Q9UQD0); test: Peak INa tonic block (TB), PatchXpress patch clamp; assay type: cell-based
T2 construct: stably expressing either human NaV1.6 (NP_055006); expressed in transfected cells
T2 sequence (Q9UQD0 whole entry): as the sequence (Q9UQD0 whole entry) above
Protocol: HEK-293 cell lines stably expressing either human NaV1.6 (NP_055006), mouse NaV1.6 (NP_035453.2), or rat NaV1.6 (NP_062139) were used. All cells were seeded at 2×10^6 cells per Nunc T75 flask for 2 days in culture. At time of harvest for assays, the cell counts were approximately 6×10^6 cells. Cells were washed (1×) in DPBS (Hyclone, Cat #SH30028.03) for approximately 30 seconds. 1 mL of 1×0.05% Trypsin-EDTA (GIBCO Cat #25300-054) was added and swirled around to cover the bottom of the flask and was allowed to sit on the cells for approximately 4 minutes (±90% of the cells were lifted by light tapping of the flask). 10 mL of warmed media (DMEM high glucose media Hyclone, SH30022.02 supplemented with 10% Fetal Bovine Serum, 2 mM Sodium Pyruvate, 10 mM HEPES and 400 μg/mL G418) was added to inactivate the trypsin. Cells were triturated until a single cell suspension was achieved. A cell count was performed and cells were aliquoted into a 250 ml centrifuge tube at a concentration of 2×10^5/mL in +30 ml of prewarmed media. The 250 mL centrifuge tube was placed on a rocker in an incubator set at 28° C. and gently rocked for approximately 1 hour to allow cells to recover. Cell aliquots of 5 mL (1×10^6 cells) were placed in a 15 mL centrifuge tube and spun at 100×g for 2 minutes. Supernatant was removed leaving a cell pellet. 100 μL of external recording solution was added to the pellet and triturated 20 times to achieve a single cell suspension and then transferred to a 1.5 mL tube for placement in the PatchXpress® (Molecular Devices).
Compound 1 was provided as powder and prepared as 10 mM DMSO stocks in 1 dram glass vials prior to assay. Immediately prior to assay, Compound 1 was diluted with DMSO to 300×, the designated final assay concentration. Assay dilutions (1× concentration) were prepared by pipetting 3 μL of diluted Compound 1 into 897 μL of extracellular solution in a 1 mL glass shell vial. Vials were capped and vortexed until initiation of the PatchXpress® (Molecular Devices) recording protocol.
The same intracellular recording solution was used for the persistent and peak INa assays, which contained: 135 mM CsF, 10 mM CsCl, 5 mM NaCl, 10 mM HEPES, 5 mM EGTA at a pH of 7.4 (adjusted with CsOH) and a measured osmolarity of 298 mOsm (adjusted with mannitol). For the persistent INa assay, the external recording solution contained: 135 mM NaCl, 5.4 mM KCl, 5 mM glucose, 2 mM CaCl2), 1 mM MgCl2, 10 mM HEPES, and 200 nM ATX-II (sea anemone toxin, Alomone Labs; Jerusalem, Israel) at a pH of 7.4 (adjusted with NaOH) and a measured osmolarity of 300 mOsm (adjusted with mannitol). For the peak INa assays, the external recording solution contained: 100 mM NaCl, 35 mM NMDG, 5.4 mM KCl, 5 mM glucose, 2 mM CaCl2), 1 mM MgCl2, and 10 mM HEPES at a pH of 7.4 (adjusted with NaOH) and a measured osmolarity of 300 mOsm (adjusted with mannitol).
All studies were performed using the PatchXpress® (Molecular Devices) automated patch clamp platform (Molecular Devices) using the whole cell configuration. Recordings were performed at room temperature. Data were collected using Patch Commander software (Molecular Devices) and processed using DataXpress 2.0 (Molecular Devices). Cell acceptance criteria were continuously monitored by custom scripts during the recording. Acceptance criteria for all assays were: baseline peak INa>800 pA, Rseal>200 MΩ, and, where appropriate, persistent INa>100 pA. Compensation was 50% and leak subtraction was not used. Currents were filtered at 5 kHz and digitized at 32.5 kHz. Raccess and Rseal were monitored throughout the recording and cells with Raccess>10 MΩ or Rseal<200 MΩ were terminated automatically by script.
Tonic Block (TB): Tonic Block (TB) protocols used low stimulation rates (about 0.1 Hz) and negative potentials (−120 mV) to keep channels in closed (resting) states. Pharmacology was measured during peak INa in response to step to 0 mV. No leak subtraction was used.

Compound: CCOC(F)(F)c1nnc2cnc(-c3cnc(OCC(F)(F)F)c(F)c3)cn12 [Compound 1, 3-(ethoxydifluoromethyl)-6-(5-fluoro-6-(2,2,2-trifluoroethoxy)pyridin-3-yl)-[1,2,4]triazolo[4,3-a]pyrazine]
- protection from hindlimb extension (FIG. 14E) [1]: robust anticonvulsant activity
- efficacy in KCNQ2 K556E PTZ seizure model ([2]; 10 mg/kg p.o., 60 min before PTZ 100 mg/kg s.c.): highly efficacious
- protection from hindlimb extension (FIG. 14C) ([2]; Kcnq2 DEE mouse model, PTZ): robust anticonvulsant activity
- shift in V1/2 of activation curve ([3]; 0.3 μmol/L): −2.3 mV
- shift in V1/2 of activation curve ([3]; 1 μmol/L): −2.7 mV
- shift in V1/2 of steady-state inactivation curve ([3]; 1 μmol/L, DMSO control −2.6 mV): −11.7 mV
- IC50 [4]: 0.109 to 0.18 µM
- IC50 [5]: 0.172 µM
- IC50 [6]: 0.109 µM
- IC50 [7]: 0.172 µM
- Ratio to Pers. INa (Peak INa TB / persistent INa) ([8]; hNaV1.6): 60
- IC50 ([8]; hNaV1.6, 0.1 Hz, resting state): 8.47 µM
